Results on eleven molecules are retold here after US11912686B2 (Gilead Sciences, Inc., priority 2020, dated 2024).

human LPAR1, sequence (Q92633 whole entry): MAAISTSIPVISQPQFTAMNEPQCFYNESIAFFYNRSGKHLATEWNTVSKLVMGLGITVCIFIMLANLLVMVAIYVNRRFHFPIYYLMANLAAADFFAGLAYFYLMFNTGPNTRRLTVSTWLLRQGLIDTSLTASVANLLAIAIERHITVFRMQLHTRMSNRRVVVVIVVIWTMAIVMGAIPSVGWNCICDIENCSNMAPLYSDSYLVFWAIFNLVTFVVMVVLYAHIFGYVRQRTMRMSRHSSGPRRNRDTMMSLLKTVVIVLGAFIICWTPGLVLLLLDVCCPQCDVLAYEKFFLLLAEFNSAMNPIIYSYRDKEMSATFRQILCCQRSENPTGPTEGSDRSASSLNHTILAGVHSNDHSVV

The assay concerns the target human LPAR1 (Homo sapiens (Human), UniProt Q92633). In words: LPAR1 intracellular calcium mobilization assay (antagonist mode, FLIPR). In kind it is cell-based. The conditions noted are these: CHO-K1 EDG2 cells expressing human LPAR1, LPA 18:2 at EC80 (100 nM), test compound 0.5 nM to 10 μM. (A change in cytosolic calcium serves as a functional read-out for many receptors and channels.)
Take `C[C@@H](OC(=O)Nc1c(-c2ccc(NC(=O)[C@H]3C[C@]4(CC4(F)F)C3)cn2)nnn1C)c1cccnc1Cl` [Compound 86, (R)-1-(2-chloropyridin-3-yl)ethyl (4-(5-((3S,5s)-1,1-difluorospiro[2.3]hexane-5-carboxamido)pyridin-2-yl)-1-methyl-1H-1,2,3-triazol-5-yl)carbamate]: the EC50 amounted to 16.6 nM.
The result for `C[C@@H](OC(=O)Nc1c(-c2ccc(NC(=O)C3(C#N)CC4(CC4)C3)cn2)nnn1C)c1cccnc1Cl` [Compound 87, (R)-1-(2-chloropyridin-3-yl)ethyl (4-(5-(5-cyanospiro[2.3]hexane-5-carboxamido)pyridin-2-yl)-1-methyl-1H-1,2,3-triazol-5-yl)carbamate] reads 16.1 nM; that for `C[C@@H](OC(=O)Nc1c(-c2ccc(NC(=O)C3CC4(CC4)C3)cn2)nnn1C)c1cccnc1Cl` [Compound 88, (R)-1-(2-chloropyridin-3-yl)ethyl (1-methyl-4-(5-(spiro[2.3]hexane-5-carboxamido)pyridin-2-yl)-1H-1,2,3-triazol-5-yl)carbamate], 8.6 nM.
Take `C[C@@H](OC(=O)Nc1c(-c2ccc(NC(=O)C3(C#N)CC34CCCC4)cn2)nnn1C)c1cccnc1Cl` (stereo partly drawn) [Compound 89, (R)-1-(2-chloropyridin-3-yl)ethyl (4-(5-(1-cyanospiro[2.4]heptane-1-carboxamido)pyridin-2-yl)-1-methyl-1H-1,2,3-triazol-5-yl)carbamate]: the 50% effective concentration (EC50) was found to be 312 nM.
`C[C@@H](OC(=O)Nc1c(-c2ccc(NC(=O)[C@@H]3CCC3(F)F)cn2)nnn1C)c1cccnc1Cl` [Compound 90, (R)-1-(2-chloropyridin-3-yl)ethyl (4-(5-((S)-2,2-difluorocyclobutane-1-carboxamido)pyridin-2-yl)-1-methyl-1H-1,2,3-triazol-5-yl)carbamate]: the EC50 amounted to 73.5 nM.
For `C[C@@H](OC(=O)Nc1c(-c2ccc(NC(=O)[C@H]3CCC3(F)F)cn2)nnn1C)c1cccnc1Cl` [Compound 91, (R)-1-(2-chloropyridin-3-yl)ethyl (4-(5-((R)-2,2-difluorocyclobutane-1-carboxamido)pyridin-2-yl)-1-methyl-1H-1,2,3-triazol-5-yl)carbamate], the EC50 amounted to 187 nM.
For `C[C@@H](OC(=O)Nc1c(-c2ccc(NC(=O)C3(C(N)=O)CC3)cn2)nnn1C)c1cccnc1Cl` [Compound 92, (R)-1-(2-chloropyridin-3-yl)ethyl (4-(5-(1-carbamoylcyclopropane-1-carboxamido)pyridin-2-yl)-1-methyl-1H-1,2,3-triazol-5-yl)carbamate], the EC50 came to 601 nM.
The result for `C[C@@H](OC(=O)Nc1c(-c2ccc(NC(=O)C3(C#N)COC3)cn2)nnn1C)c1cccnc1Cl` [Compound 93, (R)-1-(2-chloropyridin-3-yl)ethyl (4-(5-(3-cyanooxetane-3-carboxamido)pyridin-2-yl)-1-methyl-1H-1,2,3-triazol-5-yl)carbamate] reads 133 nM; that for `C[C@@H](OC(=O)Nc1c(-c2ccc(NC(=O)C3(c4cccnc4)CC3)cn2)nnn1C)c1cccnc1Cl` [Compound 94, (R)-1-(2-chloropyridin-3-yl)ethyl (1-methyl-4-(5-(1-(pyridin-3-yl)cyclopropane-1-carboxamido)pyridin-2-yl)-1H-1,2,3-triazol-5-yl)carbamate], 4820 nM.
Turning to `C[C@@H](OC(=O)Nc1c(-c2ccc(NC(=O)C3(C#N)CCOCC3)cn2)nnn1C)c1cccnc1Cl` [Compound 95, (R)-1-(2-chloropyridin-3-yl)ethyl (4-(5-(4-cyanotetrahydro-2H-pyran-4-carboxamido)pyridin-2-yl)-1-methyl-1H-1,2,3-triazol-5-yl)carbamate], the EC50 was 309 nM.
In the case of `CCC1(C(=O)Nc2ccc(-c3nnn(C)c3NC(=O)O[C@H](C)c3cccnc3Cl)nc2)COC1` [Compound 96, (R)-1-(2-chloropyridin-3-yl)ethyl (4-(5-(3-ethyloxetane-3-carboxamido)pyridin-2-yl)-1-methyl-1H-1,2,3-triazol-5-yl)carbamate] it was 2330 nM.

Broadly, the EC50 is the concentration needed to bring the measured effect to its halfway point.
